From patent US20260132140A1, “IMIDAZOLYL-AMINO-PYRAZINE-CARBONITRILS AS CHK-1 INHIBITORS” (BenevolentAI Bio Limited, priority 2022, published 2026) come the findings set out here.

SMILES strings stand for the structures. Like-named read-outs stand apart in the source and are kept apart here.

Assay [1] deals with pChk1(Ser296) in SW620 cells. Description: pChk1(Ser296) sandwich ELISA, cell-based on-target kinase activity. Particulars: Homo sapiens, read-out: SW620 pIC50 (converted). As to the method:
ELISA assays were performed as per the manufacturer's protocol. […] Selected compounds of the invention were tested as a 8-point concentration response up to a maximum concentration of either 1 μM, 3 μM or 10 μM. The percent (%) effect i.e. inhibition at each concentration of compound was calculated based on, and relative to, the amount of inhibition produced in the vehicle control and inhibited control wells contained within each plate.
In general terms: In an ELISA, binding on a coated surface is turned into a signal by an enzyme label.

A further assay deals with T1, human Chk1 kinase (Homo sapiens, UniProt O14757).
T1 sequence (O14757 1-476): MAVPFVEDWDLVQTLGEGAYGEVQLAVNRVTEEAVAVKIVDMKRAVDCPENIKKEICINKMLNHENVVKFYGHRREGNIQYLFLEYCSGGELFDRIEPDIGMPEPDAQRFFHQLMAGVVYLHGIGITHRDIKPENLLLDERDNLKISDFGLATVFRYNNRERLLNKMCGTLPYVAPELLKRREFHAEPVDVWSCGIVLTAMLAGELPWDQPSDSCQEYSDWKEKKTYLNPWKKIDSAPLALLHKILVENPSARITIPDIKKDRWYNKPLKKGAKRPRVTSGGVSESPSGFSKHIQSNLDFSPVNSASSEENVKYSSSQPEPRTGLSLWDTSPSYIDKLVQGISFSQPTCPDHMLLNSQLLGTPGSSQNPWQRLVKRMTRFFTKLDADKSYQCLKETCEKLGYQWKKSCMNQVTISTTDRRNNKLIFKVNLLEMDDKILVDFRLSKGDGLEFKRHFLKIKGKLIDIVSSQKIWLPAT
Kind of assay: biochemical.

For another assay, the target named is human Chk2 kinase (Homo sapiens, UniProt O96017). Description: biochemical.
Another assay concerns GBM LN18 cells. Description: In vitro cell viability assay (Cell Titre Glo, 72 hours). It is filed as cell-based. To be noted: Homo sapiens, LN-18, read-out: LN18 pIC50 (converted). As to the method: GBM LN18 cells were incubated with increasing concentrations of selected compounds of the invention for 72 hours prior to the measurement of ATP in metabolically viable cells with the Cell Titre® Glo Luminescent reagent. A 10-point concentration response curve up to a maximum concentration of 10 μM was tested.
The percent (%) effect i.e., inhibition at each concentration of compound was calculated based on, and relative to the amount of inhibition produced in the vehicle control and inhibited control wells contained within each plate.

Where [2] appears, read: SW-620, 2 h, neocarzinostatin 7.5 μM.
[3] abbreviates: SW-620, neocarzinostatin 7.5 μM, 2 hours.

Chain of human Chk2 kinase (O96017 whole entry): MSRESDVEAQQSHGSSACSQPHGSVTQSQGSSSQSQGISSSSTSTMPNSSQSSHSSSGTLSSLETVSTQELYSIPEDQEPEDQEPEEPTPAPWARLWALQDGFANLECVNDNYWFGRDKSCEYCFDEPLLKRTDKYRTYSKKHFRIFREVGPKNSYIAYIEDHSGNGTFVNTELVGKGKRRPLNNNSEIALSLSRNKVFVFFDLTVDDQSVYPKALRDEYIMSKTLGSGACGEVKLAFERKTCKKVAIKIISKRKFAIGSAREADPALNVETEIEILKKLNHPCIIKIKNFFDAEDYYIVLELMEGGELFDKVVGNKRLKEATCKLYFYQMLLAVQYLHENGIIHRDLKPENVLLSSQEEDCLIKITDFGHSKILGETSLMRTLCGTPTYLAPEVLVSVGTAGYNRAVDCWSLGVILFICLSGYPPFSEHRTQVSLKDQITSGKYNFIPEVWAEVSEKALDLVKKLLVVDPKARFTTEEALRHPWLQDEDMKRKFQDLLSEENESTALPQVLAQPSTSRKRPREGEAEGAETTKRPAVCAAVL

`N#Cc1cnc(Nc2cn(-c3ccc(N4CCC(N5CCC5)C4)cc3)cn2)cn1` (single isomer, unassigned) [Example 113, 5-((1-(4-(3-(Azetidin-1-yl)pyrrolidin-1-yl)phenyl)-1H-imidazol-4-yl)amino)pyrazine-2-carbonitrile]: the IC50 is 1000 to 10000 nM in assay [1] (setting [2]), 10 to 31.6 nM against human Chk1 kinase, 10000 to 100000 nM against human Chk2 kinase and under 1000 nM in the assay with GBM LN18 cells.

`CN1C[C@@H]2CN(c3ccc(-n4cnc(Nc5cnc(C#N)cn5)c4)cc3)C[C@@H]21` [Example 1, 5-((1-(4-((1R,5R)-6-Methyl-3,6-diazabicyclo[3.2.0]heptan-3-yl)phenyl)-1H-imidazol-4-yl)amino)pyrazine-2-carbonitrile]: the IC50 was 1000 to 10000 nM in assay [1] (setting [2]), under 10 nM at human Chk1 kinase, 1000 to 10000 nM at human Chk2 kinase and under 1000 nM in the assay on GBM LN18 cells.

Turning to `COc1cc(N2CC[C@@H](N(C)C)C2)ccc1-n1cnc(Nc2cnc(C#N)cn2)c1` [Example 47, (R)-5-((1-(4-(3-(Dimethylamino)pyrrolidin-1-yl)-2-methoxyphenyl)-1H-imidazol-4-yl)amino)pyrazine-2-carbonitrile], the IC50 (in assay [1] (setting [3]); with GBM LN18 cells) was under 1000 nM throughout.

As to `Cc1nc(-n2cnc(Nc3cnc(C#N)cn3)c2)ccc1N1CC[C@@H](N(C)C)C1` [Example 59, (R)-5-((1-(5-(3-(Dimethylamino)pyrrolidin-1-yl)-6-methylpyridin-2-yl)-1H-imidazol-4-yl)amino)pyrazine-2-carbonitrile], the IC50 in assay [1] (setting [2]) is 1000 to 10000 nM; against human Chk1 kinase, under 10 nM; against human Chk2 kinase, 1000 to 10000 nM; with GBM LN18 cells, under 1000 nM.

As for `CN(C)[C@@H]1CCN(c2ccc(-n3cnc(Nc4cnc(C#N)cn4)c3)c(F)c2)C1` [Example 65, (R)-5-((1-(4-(3-(Dimethylamino)pyrrolidin-1-yl)-2-fluorophenyl)-1H-imidazol-4-yl)amino)pyrazine-2-carbonitrile], the values for the IC50 (in assay [1] (setting [3]); with GBM LN18 cells) were 1000 to 10000 nM and under 1000 nM, respectively.

As to `C[C@H]1CN(c2ccc(-n3cnc(Nc4cnc(C#N)cn4)c3)cc2)C[C@@H]1N(C)C` [Example 73, 5-((1-(4-((3R,4S)-3-(Dimethylamino)-4-methylpyrrolidin-1-yl)phenyl)-1H-imidazol-4-yl)amino)pyrazine-2-carbonitrile], the IC50 was under 1000 nM in assay [1] (setting [3]), under 10 nM at human Chk1 kinase, 1000 to 10000 nM on human Chk2 kinase and under 1000 nM with GBM LN18 cells.

Turning to `C[C@@H]1C[C@@H](N(C)C)CN1c1ccc(-n2cnc(Nc3cnc(C#N)cn3)c2)cc1` [Example 74, 5-((1-(4-((2R,4R)-4-(Dimethylamino)-2-methylpyrrolidin-1-yl)phenyl)-1H-imidazol-4-yl)amino)pyrazine-2-carbonitrile], the IC50 (in assay [1] (setting [3]); in the assay on GBM LN18 cells) was under 1000 nM each time.

`C[C@@H]1CN(c2ccc(-n3cnc(Nc4cnc(C#N)cn4)c3)cc2)C[C@@H]1N(C)C` [Example 76, 5-((1-(4-((3R,4R)-3-(Dimethylamino)-4-methylpyrrolidin-1-yl)phenyl)-1H-imidazol-4-yl)amino)pyrazine-2-carbonitrile]: the results for the IC50 at human Chk1 kinase, against human Chk2 kinase and in the assay with GBM LN18 cells were 10 to 31.6 nM, 10000 to 100000 nM and under 1000 nM, respectively.

`CN(C)[C@]1(C)CCN(c2ccc(-n3cnc(Nc4cnc(C#N)cn4)c3)cc2)C1` [Example 78, (R)-5-((1-(4-(3-(Dimethylamino)-3-methylpyrrolidin-1-yl)phenyl)-1H-imidazol-4-yl)amino)pyrazine-2-carbonitrile]: the IC50 in assay [1] (setting [3]) is under 1000 nM; against human Chk1 kinase it was under 10 nM; against human Chk2 kinase it was 1000 to 10000 nM; in the assay with GBM LN18 cells it was under 1000 nM.

As for `CN(C)[C@@H]1CCN(c2ccc(-n3cnc(Nc4cnc(C#N)cn4)c3)cc2F)C1` [Example 79, (R)-5-((1-(4-(3-(Dimethylamino)pyrrolidin-1-yl)-3-fluorophenyl)-1H-imidazol-4-yl)amino)pyrazine-2-carbonitrile], the IC50 against human Chk1 kinase is under 10 nM; at human Chk2 kinase, 1000 to 10000 nM; with GBM LN18 cells it was under 1000 nM.

In the case of `CN(C)c1cc(N2CC[C@@H](N(C)C)C2)ccc1-n1cnc(Nc2cnc(C#N)cn2)c1` [Example 83, (R)-5-((1-(2-(Dimethylamino)-4-(3-(dimethylamino)pyrrolidin-1-yl)phenyl)-1H-imidazol-4-yl)amino)pyrazine-2-carbonitrile], the IC50 at human Chk1 kinase is 316 to 1000 nM; against human Chk2 kinase it was 10000 to 100000 nM; with GBM LN18 cells, 1000 to 10000 nM.

Consider `[2H]C([2H])([2H])N([C@@H]1CCN(c2ccc(-n3cnc(Nc4cnc(C#N)cn4)c3)cc2)C1)C([2H])([2H])[2H]` [Example 84, (R)-5-((1-(4-(3-(Bis(methyl-d3)amino)pyrrolidin-1-yl)phenyl)-1H-imidazol-4-yl)amino)pyrazine-2-carbonitrile], for which the IC50 in assay [1] (setting [3]) is 1000 to 10000 nM; at human Chk1 kinase it was under 10 nM; in the assay on GBM LN18 cells it was under 1000 nM.

With `C[C@@H]1C[C@@H](N(C)C)CN1c1ccc(-n2cnc(Nc3cnc(C#N)cn3)c2)nc1` [Example 85, 5-((1-(5-((2R,4R)-4-(Dimethylamino)-2-methylpyrrolidin-1-yl)pyridin-2-yl)-1H-imidazol-4-yl)amino)pyrazine-2-carbonitrile], the IC50 in assay [1] (setting [2]) is under 1000 nM; against human Chk1 kinase, under 10 nM; against human Chk2 kinase, 1000 to 10000 nM; in the assay with GBM LN18 cells, under 1000 nM.

Take `CCN(C)[C@@H]1CCN(c2ccc(-n3cnc(Nc4cnc(C#N)cn4)c3)cc2)C1` [Example 89, (R)-5-((1-(4-(3-(Ethyl(methyl)amino)pyrrolidin-1-yl)phenyl)-1H-imidazol-4-yl)amino)pyrazine-2-carbonitrile]: the values for the IC50 on human Chk1 kinase, against human Chk2 kinase and with GBM LN18 cells were under 10 nM, 1000 to 10000 nM and under 1000 nM, respectively.

In the case of `CCN(C)[C@@H]1CCN(c2ccc(-n3cnc(Nc4cnc(C#N)cn4)c3)nc2)C1` [Example 90, (R)-5-((1-(5-(3-(Ethyl(methyl)amino)pyrrolidin-1-yl)pyridin-2-yl)-1H-imidazol-4-yl)amino)pyrazine-2-carbonitrile], the IC50 at human Chk1 kinase was 10 to 31.6 nM; against human Chk2 kinase, 1000 to 10000 nM; in the assay with GBM LN18 cells, under 1000 nM.

On to `CC(C)N[C@@H]1CCN(c2ccc(-n3cnc(Nc4cnc(C#N)cn4)c3)cc2)C1` [Example 96, (R)-5-((1-(4-(3-(Isopropylamino)pyrrolidin-1-yl)phenyl)-1H-imidazol-4-yl)amino)pyrazine-2-carbonitrile], for which the IC50 against human Chk1 kinase was 10 to 31.6 nM; against human Chk2 kinase it was 10000 to 100000 nM; in the assay with GBM LN18 cells it was under 1000 nM.

Take `C[N+](C)([O-])[C@@H]1CCN(c2ccc(-n3cnc(Nc4cnc(C#N)cn4)c3)cc2)C1` [Example 141, (R)-1-(4-(4-((5-Cyanopyrazin-2-yl)amino)-1H-imidazol-1-yl)phenyl)-N,N-dimethylpyrrolidin-3-amine oxide]: the IC50 at human Chk1 kinase was 100 to 316 nM; against human Chk2 kinase, 10000 to 100000 nM; in the assay with GBM LN18 cells, 1000 to 10000 nM.

As to `N#Cc1cnc(Nc2cn(-c3ccc(N4C[C@H](N)[C@@H](F)C4)cc3)cn2)cn1` [Example 152, 5-((1-(4-((3S,4S)-3-Amino-4-fluoropyrrolidin-1-yl)phenyl)-1H-imidazol-4-yl)amino)pyrazine-2-carbonitrile], the IC50 against human Chk1 kinase is 10 to 31.6 nM; against human Chk2 kinase it was 10000 to 100000 nM; in the assay with GBM LN18 cells, 1000 to 10000 nM.

Turning to `N#Cc1cnc(Nc2cn(-c3ccc(N4C[C@@H](F)[C@@H](N)C4)cc3)cn2)cn1` [Example 157, 5-((1-(4-((3S,4R)-3-Amino-4-fluoropyrrolidin-1-yl)phenyl)-1H-imidazol-4-yl)amino)pyrazine-2-carbonitrile], the IC50 was under 10 nM on human Chk1 kinase, 10000 to 100000 nM on human Chk2 kinase and 1000 to 10000 nM in the assay with GBM LN18 cells.

Regarding `N#Cc1cnc(Nc2cn(-c3ccc(N4CC(CN)C4)cc3)cn2)cn1` [Example 158, 5-((1-(4-(3-(Aminomethyl)azetidin-1-yl)phenyl)-1H-imidazol-4-yl)amino)pyrazine-2-carbonitrile], the IC50 against human Chk1 kinase is 10 to 31.6 nM; against human Chk2 kinase, 10000 to 100000 nM; with GBM LN18 cells, 1000 to 10000 nM.

Consider `C[C@@H]1C[C@@H](N)CN1c1ccc(-n2cnc(Nc3cnc(C#N)cn3)c2)cc1` [Example 165, 5-((1-(4-((2R,4R)-4-Amino-2-methylpyrrolidin-1-yl)phenyl)-1H-imidazol-4-yl)amino)pyrazine-2-carbonitrile], for which the IC50 was under 10 nM at human Chk1 kinase, 1000 to 10000 nM on human Chk2 kinase and under 1000 nM with GBM LN18 cells.
